The supplement of paper PMC10307832

Tests used:
Test in all cases: relative viability (nuclei count vs DMSO), 5 days (fraction); higher = more cells survive
PC-3 [JPC-3] = test system: PC-3 [JPC-3]
Method in brief: (§1)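 Relative viability divides the nuclei count in treated wells by that in vehicle wells. Lung cancer cell lines were seeded in 1536-well plates, dosed by pin tool the next day, and fixed and stained after 5 days in one step with final 0.05% Triton X-100, 1% formaldehyde and 1 ug/ml Hoechst. Dosing was a single drug or a fixed anchor-drug dose plus five library-drug doses (not always all listed) in √10 steps, and values are medians of duplicate plates imaged at 4×.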

SW 1573 = test system: SW 1573
Method in brief: as §1

LK-2 = test system: LK-2
Method in brief: as §1

NCI-H3122 = test system: NCI-H3122
Method in brief: as §1

NCI-H2170 = test system: NCI-H2170
Method in brief: as §1

EMC-BAC-2 = test system: EMC-BAC-2
Method in brief: as §1

NCI-H322M = test system: NCI-H322M
Method in brief: as §1

SW 900 = test system: SW 900
Method in brief: as §1

NCI-H596 = test system: NCI-H596
Method in brief: as §1

NCI-H1993 = test system: NCI-H1993
Method in brief: as §1

A-427 = test system: A-427
Method in brief: as §1

NCI-H2009 = test system: NCI-H2009
Method in brief: as §1

NCI-H727 = test system: NCI-H727
Method in brief: as §1

LXF-289 = test system: LXF-289
Method in brief: as §1

HARA = test system: HARA
Method in brief: as §1

NCI-H1792 = test system: NCI-H1792
Method in brief: as §1

HOP-62 = test system: HOP-62
Method in brief: as §1

NCI-H1944 = test system: NCI-H1944
Method in brief: as §1

NCI-H522 = test system: NCI-H522
Method in brief: as §1

NCI-H2228 = test system: NCI-H2228
Method in brief: as §1

SK-MES-1 = test system: SK-MES-1
Method in brief: as §1

Nc1ccn([C@@H]2O[C@H](CO)[C@@H](O)[C@@H]2O)c(=O)n1 [Cytarabine] + CC(=O)Nc1cccc(-n2c(=O)n(C3CC3)c(=O)c3c(Nc4ccc(I)cc4F)n(C)c(=O)c(C)c32)c1 [Trametinib] (partner 0.02 µM) was tested, and the relative viability (PC-3 [JPC-3]; first compound 0.005 µM) was 0.705, the relative viability (PC-3 [JPC-3]; first compound 0.01581 µM) was 0.73 and the relative viability (PC-3 [JPC-3]; first compound 0.05 µM) was 0.589. It also gave a relative viability (PC-3 [JPC-3]; first compound 0.1581 µM) of 0.423, a relative viability (PC-3 [JPC-3]; first compound 0.5 µM) of 0.498 and a relative viability (SW 1573; first compound 0.005 µM) of 0.509. It also gave a relative viability (SW 1573; first compound 0.01581 µM) of 0.482, a relative viability (SW 1573; first compound 0.05 µM) of 0.415 and a relative viability (SW 1573; first compound 0.1581 µM) of 0.177. It also gave a relative viability (SW 1573; first compound 0.5 µM) of 0.0822, a relative viability (LK-2; first compound 0.005 µM) of 1.01 and a relative viability (LK-2; first compound 0.01581 µM) of 0.701. It also gave a relative viability (LK-2; first compound 0.05 µM) of 0.479, a relative viability (LK-2; first compound 0.1581 µM) of 0.226 and a relative viability (LK-2; first compound 0.5 µM) of 0.268. The relative viability (NCI-H3122; first compound 0.005 µM) was 0.221, the relative viability (NCI-H3122; first compound 0.01581 µM) was 0.252 and the relative viability (NCI-H3122; first compound 0.05 µM) was 0.187. It also gave a relative viability (NCI-H3122; first compound 0.1581 µM) of 0.177, a relative viability (NCI-H3122; first compound 0.5 µM) of 0.139 and a relative viability (NCI-H2170; first compound 0.005 µM) of 0.741. It also gave a relative viability (NCI-H2170; first compound 0.01581 µM) of 0.665, a relative viability (NCI-H2170; first compound 0.05 µM) of 0.581 and a relative viability (NCI-H2170; first compound 0.1581 µM) of 0.374. For the same molecule, the relative viability (NCI-H2170; first compound 0.5 µM) was 0.299, the relative viability (EMC-BAC-2; first compound 0.005 µM) was 0.972 and the relative viability (EMC-BAC-2; first compound 0.01581 µM) was 0.902. For the same molecule, the relative viability (EMC-BAC-2; first compound 0.05 µM) was 0.842, the relative viability (EMC-BAC-2; first compound 0.1581 µM) was 0.497 and the relative viability (EMC-BAC-2; first compound 0.5 µM) was 0.427. It also gave a relative viability (NCI-H322M; first compound 0.005 µM) of 0.484, a relative viability (NCI-H322M; first compound 0.01581 µM) of 0.456 and a relative viability (NCI-H322M; first compound 0.05 µM) of 0.441. The relative viability (NCI-H322M; first compound 0.1581 µM) was 0.429, the relative viability (NCI-H322M; first compound 0.5 µM) was 0.402 and the relative viability (SW 900; first compound 0.005 µM) was 0.83. For the same molecule, the relative viability (SW 900; first compound 0.01581 µM) was 0.653, the relative viability (SW 900; first compound 0.05 µM) was 0.662 and the relative viability (SW 900; first compound 0.1581 µM) was 0.23. It also gave a relative viability (SW 900; first compound 0.5 µM) of 0.243, a relative viability (NCI-H596; first compound 0.005 µM) of 0.812 and a relative viability (NCI-H596; first compound 0.01581 µM) of 0.759. It also gave a relative viability (NCI-H596; first compound 0.05 µM) of 0.69, a relative viability (NCI-H596; first compound 0.1581 µM) of 0.5 and a relative viability (NCI-H596; first compound 0.5 µM) of 0.499. The relative viability (NCI-H1993; first compound 0.005 µM) was 0.425, the relative viability (NCI-H1993; first compound 0.01581 µM) was 0.518 and the relative viability (NCI-H1993; first compound 0.05 µM) was 0.498. The relative viability (NCI-H1993; first compound 0.1581 µM) was 0.437, the relative viability (NCI-H1993; first compound 0.5 µM) was 0.432 and the relative viability (A-427; first compound 0.005 µM) was 0.714. For the same molecule, the relative viability (A-427; first compound 0.01581 µM) was 0.616, the relative viability (A-427; first compound 0.05 µM) was 0.381 and the relative viability (A-427; first compound 0.1581 µM) was 0.273. For the same molecule, the relative viability (A-427; first compound 0.5 µM) was 0.225, the relative viability (NCI-H2009; first compound 0.005 µM) was 0.271 and the relative viability (NCI-H2009; first compound 0.01581 µM) was 0.25. For the same molecule, the relative viability (NCI-H2009; first compound 0.05 µM) was 0.249, the relative viability (NCI-H2009; first compound 0.1581 µM) was 0.238 and the relative viability (NCI-H2009; first compound 0.5 µM) was 0.137. For the same molecule, the relative viability (NCI-H727; first compound 0.005 µM) was 0.348, the relative viability (NCI-H727; first compound 0.01581 µM) was 0.374 and the relative viability (NCI-H727; first compound 0.05 µM) was 0.354. It also gave a relative viability (NCI-H727; first compound 0.1581 µM) of 0.336, a relative viability (NCI-H727; first compound 0.5 µM) of 0.329 and a relative viability (LXF-289; first compound 0.005 µM) of 0.632. For the same molecule, the relative viability (LXF-289; first compound 0.01581 µM) was 0.573, the relative viability (LXF-289; first compound 0.05 µM) was 0.62 and the relative viability (LXF-289; first compound 0.1581 µM) was 0.428. The relative viability (LXF-289; first compound 0.5 µM) was 0.287, the relative viability (HARA; first compound 0.005 µM) was 1.03 and the relative viability (HARA; first compound 0.01581 µM) was 0.354. For the same molecule, the relative viability (HARA; first compound 0.05 µM) was 0.335, the relative viability (HARA; first compound 0.1581 µM) was 0.204 and the relative viability (HARA; first compound 0.5 µM) was 0.231. For the same molecule, the relative viability (NCI-H1792; first compound 0.01581 µM) was 0.438, the relative viability (NCI-H1792; first compound 0.05 µM) was 0.356 and the relative viability (NCI-H1792; first compound 0.1581 µM) was 0.213. For the same molecule, the relative viability (NCI-H1792; first compound 0.5 µM) was 0.118, the relative viability (HOP-62; first compound 0.005 µM) was 0.352 and the relative viability (HOP-62; first compound 0.01581 µM) was 0.327. For the same molecule, the relative viability (HOP-62; first compound 0.05 µM) was 0.261, the relative viability (HOP-62; first compound 0.1581 µM) was 0.23 and the relative viability (HOP-62; first compound 0.5 µM) was 0.144. It also gave a relative viability (NCI-H1944; first compound 0.005 µM) of 0.36, a relative viability (NCI-H1944; first compound 0.01581 µM) of 0.287 and a relative viability (NCI-H1944; first compound 0.05 µM) of 0.3. For the same molecule, the relative viability (NCI-H1944; first compound 0.1581 µM) was 0.168, the relative viability (NCI-H1944; first compound 0.5 µM) was 0.169 and the relative viability (NCI-H522; first compound 0.005 µM) was 0.823. The relative viability (NCI-H522; first compound 0.01581 µM) was 0.75, the relative viability (NCI-H522; first compound 0.05 µM) was 0.65 and the relative viability (NCI-H522; first compound 0.1581 µM) was 0.589. The relative viability (NCI-H522; first compound 0.5 µM) was 0.515, the relative viability (NCI-H2228; first compound 0.005 µM) was 0.288 and the relative viability (NCI-H2228; first compound 0.01581 µM) was 0.171. For the same molecule, the relative viability (NCI-H2228; first compound 0.05 µM) was 0.158, the relative viability (NCI-H2228; first compound 0.1581 µM) was 0.127 and the relative viability (NCI-H2228; first compound 0.5 µM) was 0.116. For the same molecule, the relative viability (SK-MES-1; first compound 0.005 µM) was 0.545, the relative viability (SK-MES-1; first compound 0.01581 µM) was 0.603 and the relative viability (SK-MES-1; first compound 0.05 µM) was 0.315. For the same molecule, the relative viability (SK-MES-1; first compound 0.1581 µM) was 0.215 and the relative viability (SK-MES-1; first compound 0.5 µM) was 0.227.
